Measurements from the NIST ThermoML archive (doi:10.1021/je700063c).
± gives the expanded uncertainty stated by the source.

Settings: Liquid; for mass density: 298.15 K, 101.33 kPa, Pycnometric method; for Normal boiling temperature: Distillation

mass density [kg/m3] | Normal boiling temperature [°C] | Structure (SMILES)
805.8 ± 0.7 |  | CCCCO [butan-1-ol]
802.4 ± 0.7 | 99.46 ± 0.1 | CCC(C)O (stereo not given) [butan-2-ol]
797.8 ± 0.7 | 107.77 ± 0.1 | CC(C)CO [2-methyl-1-propanol]
